Test results from US20230173090A1, “COMPOSITIONS AND METHODS FOR MODULATING DOPAMINE RECEPTOR ACTIVITY” (The Regents of the University of California, priority 2020, published 2023).

Legend:
dStr-dMSN D1Rs = dStr-dMSN D1Rs (Mus musculus, UniProt Q61616); assay: Open field test, MP-D1ago in dStr-dMSNs of D1-Cre mice; conditions: trans-P-D1ago 100 µM, 1 µL bilateral dStr-infusion, mice expressing the M
Description: The mice were 20-30 grams and 8-20 weeks old. […] Mice were maintained on a 12:12 light cycle (lights on at 07:00).
The sub-second velocity traces recorded using Biobserve were smoothed in MATLAB using a first order Butterworth filter (normalized cutoff frequency ωu = 0.02). Using original code written in MATLAB, a velocity threshold was manually set to distinguish movements from tracking artifacts, as verified by visual inspection of each movie. Movement bouts were counted when the velocity surpassed this threshold and lasted for at least 0.3 seconds. Bouts were considered finished after the velocity remained below the manually defined threshold for 0.1 seconds. The percent time moving was calculated as the time that velocity was above the movement threshold divided by the time of the entire measurement. Movement initiation frequency was calculated as the number of times velocity surpassed the movement threshold per second. Movement bout duration was calculated by averaging the duration of all movement bouts that occurred during the entire measurement. Max velocity was calculated by averaging the maximum velocity of all movement bouts that occurred during the entire measurement.

intracellular SNAP-tag = target: T1, intracellular SNAP-tag (Homo sapiens, UniProt P16455, A127T/A154D/C150Q/C62A/E30R/G131K/G132T/G153L/K125A/K32I/L33F/M134L/N157G/Q115S/Q116H/R128A/R135S/S151G/S152D/S159E); assay: Block of BG-TMRstar binding to intracellular SNAP-tag expressed in the cytosol; format: cell-based; conditions: 1 µM for 1 hour, then 1.5 µM BG-TMRstar for 20 minutes
T1 construct: expressed in transfected cells
T1 sequence (P16455 1-182 E30R/K32I/L33F/C62A/Q115S/Q116H/K125A/A127T/R128A/G131K/G132T/M134L/R135S/C150Q/S151G/S152D/G153L/A154D/N157G/S159E limits assumed): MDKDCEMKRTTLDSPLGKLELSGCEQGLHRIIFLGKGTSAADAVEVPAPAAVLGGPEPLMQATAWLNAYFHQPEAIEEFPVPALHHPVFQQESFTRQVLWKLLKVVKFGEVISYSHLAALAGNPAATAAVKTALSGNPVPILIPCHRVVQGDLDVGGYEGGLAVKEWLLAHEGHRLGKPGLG

GIRK channels = target: T2, GIRK channels (Homo sapiens, UniProt P48549, F137S); conditions: 1 µM P-D1ago labeled cells without D1R; % of 3 mM BaCh, a GIRK channel blocker; n = 5 cells
T2 sequence (P48549 1-501 F137S): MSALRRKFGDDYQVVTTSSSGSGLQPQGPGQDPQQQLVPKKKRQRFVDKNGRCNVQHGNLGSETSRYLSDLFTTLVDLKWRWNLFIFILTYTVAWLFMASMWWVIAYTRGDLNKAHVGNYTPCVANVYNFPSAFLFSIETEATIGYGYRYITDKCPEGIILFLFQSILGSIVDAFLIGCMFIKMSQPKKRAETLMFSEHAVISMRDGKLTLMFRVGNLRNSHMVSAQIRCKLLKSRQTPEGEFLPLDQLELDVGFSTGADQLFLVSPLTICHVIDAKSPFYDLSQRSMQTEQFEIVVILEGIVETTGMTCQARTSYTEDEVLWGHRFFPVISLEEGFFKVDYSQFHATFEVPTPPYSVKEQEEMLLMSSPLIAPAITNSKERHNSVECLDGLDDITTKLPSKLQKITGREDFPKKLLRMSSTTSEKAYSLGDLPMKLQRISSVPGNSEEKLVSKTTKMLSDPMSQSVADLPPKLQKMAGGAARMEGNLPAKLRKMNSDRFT

[1] = Photophysical properties (absorbance, photoswitching); format: physicochemical
Experimental: FIGS. 8A-8D. Photophysical properties of P-D1ago. (A) Absorbance spectra of P-D1ago under blue light (460 nm; blue) and UV light (370 nm; grey). (B) P-D1ago repeatedly switches from its trans to cis isomer with UV light and back to trans with blue light. […] Cells were incubated for 1 hour with vehicle (left upper panels), 1 µM surface block (left middle panels), or 1 µM P-D1ago (left lower panels), and were then labeled for 30 minutes with 1.5 µM BG-Alexa647. Cytosolic tdTomato was used as a transfection marker, grey bar = […]. A summary of labeling according to flow cytometry is shown on the right. unpaired two-sided t-test, p = 0.60. n = 3-6 replicates per condition. (D) M labeling as a function of the concentration of P-D1ago. The M was incubated for 1 hour with increasing concentrations of P-D1ago, and then labeled for 30 minutes with 1.5 µM BG-Alexa647. Labeling was measured by flow cytometry. (E) Time course of M labeling with P-D1ago. The M was incubated for different times with 1 µM P-D1ago, and then labeled for 30 minutes with 1.5 µM BG-Alexa647. Labeling was measured by flow cytometry. n = 3-4 replicates per condition. […] This contrasts with the commercially available permeant benzylguanine analog, cell block. […] Cytosolic mTurquoise was used as a transfection marker, grey bar = […]. A summary of labeling according to flow cytometry is shown on the right. unpaired two-sided t-test, ***p < 0.001. n = 3 replicates per condition.

dStr-dMSN D1Rs, sequence (Q61616 whole entry, the tested form may be a part): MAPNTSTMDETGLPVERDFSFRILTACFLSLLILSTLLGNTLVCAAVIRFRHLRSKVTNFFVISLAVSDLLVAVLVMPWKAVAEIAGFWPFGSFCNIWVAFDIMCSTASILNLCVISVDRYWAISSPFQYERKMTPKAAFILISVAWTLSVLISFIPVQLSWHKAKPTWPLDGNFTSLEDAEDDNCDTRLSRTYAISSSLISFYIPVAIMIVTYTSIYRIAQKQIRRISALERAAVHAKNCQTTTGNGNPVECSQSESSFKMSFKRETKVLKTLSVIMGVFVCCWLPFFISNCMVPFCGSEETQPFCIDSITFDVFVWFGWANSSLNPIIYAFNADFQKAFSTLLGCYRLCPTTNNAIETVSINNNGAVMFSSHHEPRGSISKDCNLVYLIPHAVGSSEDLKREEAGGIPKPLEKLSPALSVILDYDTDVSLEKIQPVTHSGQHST

In the case of `CCCN(CCc1ccc(N=Nc2ccc(NC(=O)CNC(=O)CCOCCOCCOCCOCCOCCOCCOCCOCCOCCOCCOCCOCCn3cc(CCC(=O)NCc4ccc(COc5nc(N)nc6nc[nH]c56)cc4)nn3)cc2)cc1)C1CCc2c(O)cccc2C1` (centres unmarked) [P-D1ago, Benzylguanine-azobenzene-PPHT], the “persistence of increased motor activity” value (dStr-dMSN D1Rs) is reported as “remained high for many hours”, the “return of motor activity to baseline” value (dStr-dMSN D1Rs) is reported as “returned to baseline over a two-day period” and the “time to increase of motor activity after start of infusion” value (dStr-dMSN D1Rs; dark) is reported as no more than 30 min. The “block of BG-TMRstar binding to intracellular SNAP-tag (membrane permeation)” value (intracellular SNAP-tag) was “does not effectively prevent the binding”, the “effect of switching from UV light to blue light on basal current” value (GIRK channels) was 1.3 ± 1.0% and the “wavelength switching trans-isomer to cis-isomer” value ([1]; UV light) was 370 nm. For the same molecule, the “wavelength switching cis-isomer back to trans-isomer” value ([1]; blue light) was 460 nm and the “stability of the cis state” value ([1]; in the dark after illumination with UV light) was “stable in the cis state in the dark”.
